Tests used:
[1] = target: T1, GDP-loaded KRAS (1-169) G12C, C51S, C80L, C118S (Homo sapiens, UniProt P01116, C118S/C51S/C80L/G12C); test: Mass Spectrometry Reactivity Assay (MSRA): covalent adduct of compound and KRAS G12C, Percent Modification; assay type: binding; settings: 5.0 μM compound, 0.017 hr
T1 construct: GDP-loaded KRAS (1-169) G12C, C51S, C80L, C118S
Method: Mass Spectrometry Reactivity Assay (MSRA)
Compounds presented in the present invention covalently bind to KRAS G12C using MSRA to detect a covalent adduct of the exemplary compound and KRAS G12C.
GDP-loaded KRAS (1-169) G12C, C51S, C80L, C118S were diluted in the protein assay buffer 25 mM Hepes pH7.5, 200 mM NaCl, 5% glycerol to concentration of 5 μM and 20 μl of protein was transferred into 96-well plate. Initial compound stocks were generated at concentrations 100-fold higher that their desired assay concentrations. See K-Ras(G12C) inhibitors allosterically control GTP affinity and effector interactions; Ostrem J M, Peters U, Sos M L, Wells J A, Shokat K M; Nature. 2013, Nov. 28; 503(7477):548-51.
Exemplary compounds dissolved in DMSO were diluted 100-fold into solution containing 20 μl of 5 μM KRAS protein in the 96-well plate to initiate the reaction. Mosquito (TPP Lab tech) liquid handling robot was used to add compounds to protein solution. Typical final concentration of the compounds was 5 μM or 10 μM. The plates were placed on a shaker for 1 min at RT, sealed and incubated at room temperature for specified time period. 5 μl of reaction mix was added to 10 μl of 0.2% formic acid stop solution and mixed well. Typical end points were 1, 15, 30, and 60 min.
Data were collected using Waters Acquity H-class UPLC system/Xevo G2-XS TOF mass spectrometer. The protein was injected in their liquid phase onto a Bruker Microtrap protein column TR1/15109/03. The following buffers were used to set LC gradient: Buffer A: 0.2% formic acid H2O; B: 0.2% formic acid CAN. The protein was eluted from the column using the following LC Gradient: 0-0.4 min, 10% B to 30% B; 0.4 min-2.4 min, to 90% B, 2.5 min, 10% B, 3 min, 10% B. Initial data analysis was performed using MaxEnt software right after data acquisition.
The standard auto processing function was used to define percentage of unmodified and modified KRAS protein using MexEnt software right after data acquisition. The highest peak was defined as 100% while smaller peak as assigned the number defined by autoprocessing function. The percent of modification corresponding to modified with exemplary compound and unmodified KRAS GDP-loaded KRAS (1-169) G12C, C51S, C80L, C118S were exported to Xcel data analysis software.
The percent of modified protein at the defined concentration of exemplary compound was calculated using the following formula: % mod=Num of modified peak/Sum of modified+unmodified. The resultant value defined as Percent Modification (PM) and an increase in PM reflects that the specific compound is better than other compounds at specified compound concentration at a given time point.

[2] = target: KRAS G12C (Homo sapiens, UniProt P01116, G12C); test: Cell Activity Assay: accumulation of GDP-bound KRAS G12C in MIAPaCa-2 cells (Raf-1 RBD capture, MSD readout); assay type: cell-based; design: endogenous in cells; host or cells: MIAPaCa-2; settings: 6 hours, assay limit is 30.00
Method: Compounds presented in the present invention lead to the accumulation of the GDP bound Ras upon treatment of human cancer cell line.
The accumulation of the GDP-bound KRAS G12C in cellular environment was measured based on the principle that KRAS G12C only binds to its downstream kinase; Raf-1 (MAP Kinase Kinase Kinase), when in its active-GTP bound state. In this state, Ras binded to a domain of Raf-1 kinase referred to as the Ras Binding Domain (RBD).
MIAPaCa-2 cells were grown in RPMI 1640 medium (Gibco 11875) supplemented with 10% fetal bovine serum and 1% penicillin/streptomycin. Cells were seeded in 96-well tissue culture plates at a density of 30,000 cells/well and allowed to attach for 16-24 hours. Test compounds were prepared as a 10 mM stock in DMSO and serially diluted in 100% DMSO using a 3-fold dilution scheme. An intermediate 5× concentrated plate in complete growth medium was made and 25 μl/well was added to the 100 μl of cells for a final concentration of 0.3% DMSO. Each concentration of exemplary compound was tested in duplicate. The negative control wells were cells with control inhibitor at 10 μM, and the positive control wells were cells without drugs, DMSO only. Plates were incubated for 6 hours at 37° C., 5% CO2. Following treatment, cells were washed 3× with ice-cold PBS and 115 μl/well ice-cold 1× Assay/Lysis. Buffer with protease inhibitors was added (25 mM HEPES, pH 7.5, 150 mM NaCl, 1% NP-40, 10 mM MgCl2, 1 mM EDTA, 2% Glycerol). Following lysis samples were frozen at −80° C.
Raf-1 RBD (LJIC-1988A1) was diluted to 100 ng/well in PBS and 5 μl/well was spot coated onto MSD high bind SECTOR plates (L15XB). Plates were incubated at room temperature for 1 hour on an orbital shaker. Plates were washed with PBS/0.05% Tween-20 and 50 μl/well of thawed lysate samples were added, followed by 50 μl of 1% MSD Blocker A in PBS/0.05 Tween-20 (R93BA). Plates were incubated for 1 hour on an orbital shaker and washed with PBS/0.05% Tween-20. 25 μl/well of Anti-pan-Ras Antibody (Cell Biolabs 244003) diluted 1:3000 was added in 1% MSD Blocker A solution and plates were incubated for 1 hour on an orbital shaker and washed with PBS/0.05% Tween-20. SULFO-TAG goat anti-mouse secondary antibody (MSD R32AC) was diluted 1:500 in MSD Blocker A solution and added at 25 μL/well. Plates were incubated for 1 hour on an orbital shaker and washed with PBS/0.05% Tween-20. 150 μl/well of Read Buffer T (MSD R92TC) diluted 1:3 in H2O was added and plates were read on a Meso Scale Discovery Sector Imager S600.
KRAS signal was normalized to maximum inhibition and DMSO control values, and IC50 values were generated using a 4 parameter fit of the dose response curve. The decrease in IC50 reflects that the exemplary compound lead to a higher level of accumulation of GDP-bound KRAS G12C than another exemplary compounds at specific timepoint of treatment of cancer cell line.

Compound	MSRA (% modification) 5.0 μM 0.017 hr [1]	IC50 [2]
C=CC(=O)N1CCN(c2nc(O[C@@H]3CN(C)C[C@H]3CC)nc3c(Oc4c(Cl)c(F)cc5[nH]ncc45)nc(Cl)cc23)CC1 (racemic) [Example 28G, rac-1-[4-(6-chloro-8-[(5-chloro-6-fluoro-1H-indazol-4-yl)oxy]-2-{[(3S,4R)-4-ethyl-1-methylpyrrolidin-3-yl]oxy}pyrido[3,4-d]pyrimidin-4-yl)piperazin-1-yl]prop-2-en-1-one]	60%	0.037 µM
C=CC(=O)N1CCN(c2nc(O[C@@H]3COC[C@H]3N(C)C)nc3c(Oc4c(Cl)c(F)cc5[nH]ncc45)nc(Cl)cc23)CC1 (racemic) [Example 30G, rac-1-[4-(6-chloro-8-[(5-chloro-6-fluoro-1H-indazol-4-yl)oxy]-2-{[(3S,4R)-4-(dimethylamino)oxolan-3-yl]oxy}pyrido[3,4-d]pyrimidin-4-yl)piperazin-1-yl]prop-2-en-1-one]	53%	0.026 µM
C=CC(=O)N1CCN(c2nc(O[C@@H]3CN(C)C[C@@H]3C)nc3c(Oc4c(Cl)c(F)cc5[nH]ncc45)nc(Cl)cc23)CC1 (racemic) [Example 31G, rac-1-[4-(6-chloro-8-[(5-chloro-6-fluoro-1H-indazol-4-yl)oxy]-2-{[(3R,4R)-1,4-dimethylpyrrolidin-3-yl]oxy}pyrido[3,4-d]pyrimidin-4-yl)piperazin-1-yl]prop-2-en-1-one]	26%	0.135 µM
C=CC(=O)N1CCN(c2nc(O[C@@H]3CN(C)C[C@H]3C)nc3c(Oc4c(Cl)c(F)cc5[nH]ncc45)nc(Cl)cc23)CC1 (racemic) [Example 32G, rac-1-[4-(6-chloro-8-[(5-chloro-6-fluoro-1H-indazol-4-yl)oxy]-2-{[(3S,4R)-1,4-dimethylpyrrolidin-3-yl]oxy}pyrido[3,4-d]pyrimidin-4-yl)piperazin-1-yl]prop-2-en-1-one]	44%	0.016 µM
C=CC(=O)N1CCN(c2nc(O[C@@H]3CCN(CCOC)C[C@H]3C)nc3c(Oc4c(Cl)c(F)cc5[nH]ncc45)nc(Cl)cc23)CC1 (racemic) [Example 33G, rac-1-[4-(6-chloro-8-[(5-chloro-6-fluoro-1H-indazol-4-yl)oxy]-2-{[(3R,4R)-1-(2-methoxyethyl)-3-methylpiperidin-4-yl]oxy}pyrido[3,4-d]pyrimidin-4-yl)piperazin-1-yl]prop-2-en-1-one]	51%	0.052 µM
C=CC(=O)N1CCN(c2nc(O[C@@H]3CCN(C)C[C@H]3C)nc3c(Oc4c(Cl)c(F)cc5[nH]ncc45)nc(Cl)cc23)CC1 (racemic) [Example 34G, rac-1-[4-(6-chloro-8-[(5-chloro-6-fluoro-1H-indazol-4-yl)oxy]-2-{[(3R,4R)-1,3-dimethylpiperidin-4-yl]oxy}pyrido[3,4-d]pyrimidin-4-yl)piperazin-1-yl]prop-2-en-1-one]	47%	0.063 µM
C=CC(=O)N1CCN(c2nc(O[C@@H]3CN(C)C[C@H]3C)nc3c(Oc4c(Cl)c(Cl)cc5[nH]ncc45)nccc23)CC1 (racemic) [Example 51I, rac-1-[4-(8-[(5,6-dichloro-1H-indazol-4-yl)oxy]-2-{[(3S,4R)-1,4-dimethyl-pyrrolidin-3-yl]oxy}pyrido [3,4-d]pyrimidin-4-yl)piperazin-1-yl]prop-2-en-1-one]	39%	0.031 µM

Other lines, results leading:

MSRA (% modification) 5.0 μM 0.017 hr [1]	IC50 [2]	Compound
19%	0.168 µM	C=CC(=O)N1CCN(c2nc(O[C@@H]3CN(C)C[C@H]3OCC(F)F)nc3c(Oc4c(Cl)c(F)cc5[nH]ncc45)nccc23)CC1 (racemic) [Example 32I, rac-1-[4-(8-[(5-chloro-6-fluoro-1H-indazol-4-yl)oxy]-2-{[(3R,4R)-4-(2,2-difluoro-ethoxy)-1-methyl-pyrrolidin-3-yl]oxy}pyrido [3,4-d]pyrimidin-4-yl)piperazin-1-yl]prop-2-en-1-one]
57%	0.029 µM	C=CC(=O)N1CCN(c2nc(O[C@@H]3CN(C)C[C@H]3C(F)F)nc3c(Oc4c(Cl)c(F)cc5[nH]ncc45)nccc23)CC1 (racemic) [Example 36I, rac-1-[4-(8-[(5-chloro-6-fluoro-1H-indazol-4-yl)oxy]-2-{[(3S,4R)-4-(difluoro-methyl)-1-methyl-pyrrolidin-3-yl]oxy}pyrido [3,4-d]pyrimidin-4-yl)piperazin-1-yl]prop-2-en-1-one]
31%	0.083 µM	C=CC(=O)N1CCN(c2nc(O[C@@H]3CN(C)C[C@H]3C3CC3)nc3c(Oc4c(Cl)c(F)cc5[nH]ncc45)nccc23)CC1 (racemic) [Example 39I, rac-1-[4-(8-[(5-chloro-6-fluoro-1H-indazol-4-yl)oxy]-2-{[(3S,4R)-4-cyclo-propyl-1-methyl-pyrrolidin-3-yl]oxy}pyrido [3,4-d]pyrimidin-4-yl)piperazin-1-yl]prop-2-en-1-one]
15%	0.059 µM	C=CC(=O)N1CCN(c2nc(O[C@@H]3CN(C)CC[C@H]3C)nc3c(Oc4c(Cl)c(F)cc5[nH]ncc45)nccc23)CC1 (racemic) [Example 53I, rac-1-[4-(8-[(5-chloro-6-fluoro-1H-indazol-4-yl)oxy]-2-{[(3S,4R)-1,4-dimethyl-piperidin-3-yl]oxy}pyrido [3,4-d]pyrimidin-4-yl)piperazin-1-yl]prop-2-en-1-one]
58%	0.006 µM	C=CC(=O)N1CCN(c2nc(O[C@@H]3CN(C)C[C@H]3C(F)F)nc3c(Oc4c(Cl)c(F)cc5[nH]ncc45)nccc23)CC1 (single isomer, unassigned) [Example 58I]
13%	0.123 µM	C=CC(=O)N1CCN(c2nc(O[C@@H]3CN(C)C[C@H]3C(F)F)nc3c(Oc4c(Cl)c(F)cc5[nH]ncc45)nccc23)CC1 (single isomer, unassigned) [Example 59I]

Reference: US10662204B2 (PFIZER INC., priority 2018, dated 2020)
